Results from patent US7592326B2, “Method for stimulating the immune, inflammatory or neuroprotective response” (priority 2004, dated 2009).

What was measured:
[1] = tested on: Influenza virus B/Yamanashi/166/98; assay: Influenza vaccination model in mice, c-diGMP as adjuvant (proposed); assay type: in vivo; conditions: two vaccinations 3 weeks apart
p38 MAPK = assay: Western blot signaling in human DCs: p38 MAPK; assay type: cell-based; conditions: 5 and 20 min treatment, FIG. 13A
Protocol: Human PBMC were isolated by Ficoll density gradient centrifugation from leukopacks supplied by the Department of Transfusion Medicine (Clinical Center, National Institute of Health, Bethesda, Md.). Monocytes were purified (>95%) from human PBMC with MACS CD14 monocyte isolation kit (Miltenyi Biotech Inc., Auburn, Calif.) according to the manufacturer's instruction. DCs were generated as described previously (Yang et al., 2001). In brief, DCs were generated by incubating purified monocytes at 2×10^5/ml in RPMI 1640 containing 10% FBS, 2 mM glutamine, 25 mM HEPES, 100 U/ml penicillin, 100 ug/ml streptomycin, 50 ng/ml recombinant human GM-CSF (PeproTech, Rocky Hill, N.J.), and 50 ng/ml recombinant human IL-4 (PeproTech) at 37° C. in a CO2 (5%) incubator for 7 days. On day 3 and 5 of the incubation, half of the culture medium was replaced with pre-warmed (37° C.) fresh GM-CSF- and IL-4-containing medium. On day 7, DCs were collected, washed three times with PBS, and serum-starved for 8 hours by incubating in serum-free RPMI-1640 containing GM-CSF and IL-4 (2×10^5/ml) at 37° C. in a CO2 (5%) incubator. Subsequently, DCs (2×10^6/sample) were incubated at 37° C. in the absence or presence of c-di-GMP or GMP (Sigma, St. Louis, Mo.) at concentrations specified for 5 or 30 minutes. […]

[2] = tested on: Primary hippocampal cells; assay: Staurosporine-induced cell death in primary hippocampal cultures (CellTiter 96 AQueous Assay); assay type: cell-based
Protocol: To assess the role of cyclic dinucleotides in modulating the neurological response, i.e., prevent cell death induced by staurosporine (STS) in primary hippocampal nerve cells, the effects of c-di-GMP on hippocampal cells was analyzed. Primary hippocampal cells were prepared according to previously described methods (Pereira et al., 1993). Briefly, the hippocampi were dissected from the brain of 18-day-old fetal rats. Following enzymatic and mechanical dissociation, cells were plated at a density of 100,000 cells/well in 96-well plates pre-coated with matrigel. At the 7th day after plating, cultures were subjected to one of the following treatments: (i) vehicle (24 h), (ii) STS (100 nM, 22 h), (iii) c-di-GMP (24 h), (iv) c-di-GMP (2 h) followed by c-di-GMP -plus-STS (22 h), (v) c-di-GMP -plus-STS (24 h), or (vi) STS (2 h) followed by c-di-GMP -plus-STS (22 h). At the end of the treatments, cell viability was analyzed using CellTiter 96® AQueous Assay (Promega). The assay involves the spectrophotometric measurement (at 490 nm) of the mitochondrial conversion of a tetrazolium dye into a colorful product. The absorbance of the assay correlates with the number of metabolically active cells.

`Nc1nc(=O)c2ncn([C@@H]3OC4COP(=O)(O)O[C@H]5[C@@H](O)[C@H](n6cnc7c(=O)nc(N)[nH]c76)O[C@@H]5COP(=O)(O)OC4C3O)c2[nH]1` (some centres unmarked) [c-di-GMP, Bis(3′→5′)-cyclic diguanylic acid] was tested, and the survival after challenge [1] was “greater survival”, the “activation of p38 MAPK (phospho-p38)” value (p38 MAPK) was “activated” and the “number of metabolic active cells vs STS alone” value ([2]; 0.1-10 μM applied together with or after STS) was “on average higher”. The “STS-induced cell death, pre-treatment” value ([2]; 0.1-10 μM, 2 h before STS 100 nM, FIG. 5) was “prevented the STS-induced cell death” and the “toxicity to primary hippocampal cultures” value ([2]; 24 h) was “not toxic”.
